# Organism: Oryctolagus cuniculus
# Assay: Antithrombotic activity against rabbit arterio-venous shunt thrombosis model
# Type: functional, organism-based
# Details: not given
row,Structure (SMILES),EC50 [nM]
1,Nc1noc2ccc(-n3nc(C(F)(F)F)cc3C(=O)NC3CCN(c4ccccc4CN4CCCC4)CC3)cc12,740

# System: not listed separately
# Assay: Metabolic stability in human liver microsomes assessed as intrinsic clearance
# Type: ADME, Microsome
# Details: not given
row,Structure (SMILES),microsomal CLint [µL/min/mg]
1,Nc1noc2ccc(-n3nc(C(F)(F)F)cc3C(=O)NC3CCN(c4ccccc4CN4CCCC4)CC3)cc12,29
2,CCN(C)Cc1ccccc1N1CCC(NC(=O)c2cc(C(F)(F)F)nn2-c2ccc3onc(N)c3c2)CC1,29
3,Nc1noc2ccc(-n3nc(C(F)(F)F)cc3C(=O)NC3CCN(c4ccccc4CN4CCC[C@H]4O)CC3)cc12,40
4,CS(=O)(=O)c1ccccc1N1CCC(NC(=O)c2cc(C(F)(F)F)nn2-c2ccc3onc(N)c3c2)CC1,51

# Target: Trypsin (Homo sapiens, UniProt P07477+P07478+P35030)
# Assay: Inhibition of trypsin
# Type: protein assay
# Details: not given
row,Structure (SMILES),Ki [nM]
1,COc1ccc(-n2nc(C(N)=O)c3c2C(=O)N(C2CCN(c4ccccc4S(C)(=O)=O)CC2)CC3)cc1,> 20000

# System: Plasma
# Assay: Anticoagulant potency in human plasma assessed as concentration required to double prothrombin time
# Type: functional
# Details: not given
row,Structure (SMILES),PT [µM]
1,Nc1noc2ccc(-n3nc(C(F)(F)F)cc3C(=O)NC3CCN(c4ccccc4CN4CCCC4)CC3)cc12,0.84
2,CCN(C)Cc1ccccc1N1CCC(NC(=O)c2cc(C(F)(F)F)nn2-c2ccc3onc(N)c3c2)CC1,1.1
3,COc1ccc(-n2nc(C(N)=O)c3c2C(=O)N(C2CCN(c4ccccc4CN(C)C)CC2)CC3)cc1,1
4,COc1ccc(-n2nc(C(N)=O)c3c2C(=O)N(C2CCN(c4ccccc4CN4CCCC4)CC2)CC3)cc1,1.2
5,COc1ccc(-n2nc(C(N)=O)c3c2C(=O)N(C2CCN(c4ccccc4CN4CCC[C@@H]4O)CC2)CC3)cc1,2.5
6,CCN(CC)Cc1ccccc1N1CCC(N2CCc3c(C(N)=O)nn(-c4ccc(OC)cc4)c3C2=O)CC1,1.5
7,COc1ccc(-n2nc(C(N)=O)c3c2C(=O)N(C2CCN(c4ccccc4S(C)(=O)=O)CC2)CC3)cc1,4.2
8,Nc1noc2ccc(-n3nc(C(F)(F)F)cc3C(=O)NC3CCN(c4ccccc4CN4CCC[C@H]4O)CC3)cc12,0.83
9,CNCc1ccccc1N1CCC(N2CCc3c(C(N)=O)nn(-c4ccc(OC)cc4)c3C2=O)CC1,1.8
10,COc1ccc(-n2nc(C(N)=O)c3c2C(=O)N(C2CCN(c4ccccc4CN4CCOCC4)CC2)CC3)cc1,3.5
11,CNCc1ccccc1N1CCC(NC(=O)c2cc(C(F)(F)F)nn2-c2ccc3onc(N)c3c2)CC1,1.2
12,CS(=O)(=O)c1ccccc1N1CCC(NC(=O)c2cc(C(F)(F)F)nn2-c2ccc3onc(N)c3c2)CC1,2.8

# Target: Prothrombin (Homo sapiens, UniProt P00734)
# Assay: Inhibition of thrombin
# Details: not given
row,Structure (SMILES),Ki [nM]
1,COc1ccc(-n2nc(C(N)=O)c3c2C(=O)N(C2CCN(c4ccccc4S(C)(=O)=O)CC2)CC3)cc1,1200

# System: not listed separately
# Assay: Half life in human liver microsomes
# Details: not given
row,Structure (SMILES),half-life [h]
1,COc1ccc(-n2nc(C(N)=O)c3c2C(=O)N(C2CCN(c4ccccc4S(C)(=O)=O)CC2)CC3)cc1,1.95

# Target: Coagulation factor X (Homo sapiens, UniProt P00742)
# Sequence (P00742 41-179 limits assumed): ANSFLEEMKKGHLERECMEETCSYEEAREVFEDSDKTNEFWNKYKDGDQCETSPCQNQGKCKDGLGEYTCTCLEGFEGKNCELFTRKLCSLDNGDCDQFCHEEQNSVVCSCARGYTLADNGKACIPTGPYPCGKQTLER
# Sequence (P00742 235-488 limits assumed): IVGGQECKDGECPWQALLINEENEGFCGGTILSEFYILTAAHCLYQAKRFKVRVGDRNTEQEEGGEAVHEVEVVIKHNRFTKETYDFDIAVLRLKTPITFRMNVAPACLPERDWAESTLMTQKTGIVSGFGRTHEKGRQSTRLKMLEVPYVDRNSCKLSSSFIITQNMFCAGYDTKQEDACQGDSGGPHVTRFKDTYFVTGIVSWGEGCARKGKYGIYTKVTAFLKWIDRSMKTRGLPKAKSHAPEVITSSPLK
# Assay: Inhibition of human factor 10a
# Details: not given
row,Structure (SMILES),Ki [nM]
1,CS(=O)(=O)c1ccccc1[C@H]1CC[C@H](NC(=O)c2cc(C(F)(F)F)nn2-c2cccc(CN)c2)CC1,5.7
2,CS(=O)(=O)c1ccccc1N1CCC(NC(=O)c2cc(C(F)(F)F)nn2-c2ccc3onc(N)c3c2)CC1=O (configuration not stated),92
3,Nc1noc2ccc(-n3nc(C(F)(F)F)cc3C(=O)NC3CCN(c4ccccc4CN4CCCC4)CC3)cc12,0.61
4,COc1ccc(-n2nc(C(N)=O)c3c2C(=O)N(C2CCN(c4ccccc4CN(C)S(C)(=O)=O)CC2)CC3)cc1,81
5,CCN(C)Cc1ccccc1N1CCC(NC(=O)c2cc(C(F)(F)F)nn2-c2ccc3onc(N)c3c2)CC1,0.7
6,CS(=O)(=O)c1ccccc1N1CCC(NC(=O)c2cc(C(F)(F)F)nn2-c2ccccc2CN)CC1,2.4
7,COc1ccc(-n2nc(C(F)(F)F)cc2C(=O)NC2CCN(c3ccccc3CN(C)C)CC2)cc1,8.8
8,COc1ccc(-n2nc(C(N)=O)c3c2C(=O)N(C2CCN(c4ccccc4CN(C)C)CC2)CC3)cc1,0.41
9,COc1ccc(-n2nc(C(N)=O)c3c2C(=O)N(C2CCN(c4ccccc4CN4CCCC4)CC2)CC3)cc1,0.26
10,COc1ccc(-n2nc(C(N)=O)c3c2C(=O)N(C2CCN(c4ccccc4CN4CCC[C@@H]4O)CC2)CC3)cc1,0.87
11,CCN(CC)Cc1ccccc1N1CCC(N2CCc3c(C(N)=O)nn(-c4ccc(OC)cc4)c3C2=O)CC1,0.26
12,COc1ccc(-n2nc(C(N)=O)c3c2C(=O)N(C2CCN(c4ccccc4S(C)(=O)=O)CC2)CC3)cc1,0.35
13,COc1ccc(-n2nc(C(N)=O)c3c2C(=O)N(C2CCN(c4ccccc4CN(C)C(C)=O)CC2)CC3)cc1,23
14,CS(=O)(=O)c1ccccc1N1CCC(NC(=O)c2cc(C(F)(F)F)nn2-c2cccc(CN)c2)CC1,4.9
15,COc1ccc(-n2nc(C(F)(F)F)cc2C(=O)NC2CCN(c3ccccc3S(C)(=O)=O)CC2)cc1,14
16,COc1ccc(-n2nc(C(F)(F)F)cc2C(=O)NC2CCN(c3ccccc3CN3CCCC3)CC2)cc1,29
17,Nc1noc2ccc(-n3nc(C(F)(F)F)cc3C(=O)NC3CCN(c4ccccc4CN4CCC[C@H]4O)CC3)cc12,0.73
18,CS(=O)(=O)c1ccccc1C1=CCC(NC(=O)c2cc(C(F)(F)F)nn2-c2cccc(CN)c2)CC1 (configuration not stated),3
19,CS(=O)(=O)c1ccccc1[C@H]1CC[C@@H](NC(=O)c2cc(C(F)(F)F)nn2-c2cccc(CN)c2)CC1,2000
20,CNCc1ccccc1N1CCC(N2CCc3c(C(N)=O)nn(-c4ccc(OC)cc4)c3C2=O)CC1,1
21,COc1ccc(-n2nc(C(N)=O)c3c2C(=O)N(C2CCN(c4ccccc4CN4CCOCC4)CC2)CC3)cc1,0.57
22,CNCc1ccccc1N1CCC(NC(=O)c2cc(C(F)(F)F)nn2-c2ccc3onc(N)c3c2)CC1,0.67
23,COc1ccc(-n2nc(C(N)=O)c3c2C(=O)N(C2CCN(c4ccccc4S(N)(=O)=O)CC2)CC3)cc1,3.9
24,COc1ccc(-n2nc(C(F)(F)F)cc2C(=O)NC2CCN(c3ccccc3CN3CCOCC3)CC2)cc1,6.6
25,CS(=O)(=O)c1ccccc1N1CCC(NC(=O)c2cc(C(F)(F)F)nn2-c2ccc3onc(N)c3c2)CC1,1.7

# System: not listed separately
# Assay: in vivo
# Details: dog, po, 0.2 mg/kg
row,Structure (SMILES),bioavailability [%]
1,Nc1noc2ccc(-n3nc(C(F)(F)F)cc3C(=O)NC3CCN(c4ccccc4CN4CCCC4)CC3)cc12,26
2,CCN(C)Cc1ccccc1N1CCC(NC(=O)c2cc(C(F)(F)F)nn2-c2ccc3onc(N)c3c2)CC1,23
3,COc1ccc(-n2nc(C(N)=O)c3c2C(=O)N(C2CCN(c4ccccc4S(C)(=O)=O)CC2)CC3)cc1,78
4,CNCc1ccccc1N1CCC(NC(=O)c2cc(C(F)(F)F)nn2-c2ccc3onc(N)c3c2)CC1,1.7
5,CS(=O)(=O)c1ccccc1N1CCC(NC(=O)c2cc(C(F)(F)F)nn2-c2ccc3onc(N)c3c2)CC1,24

# System: not listed separately
# Assay: Apparent permeability across Caco-2 cells
# Details: human
row,Structure (SMILES),Papp [×10⁻⁶ cm/s]
1,Nc1noc2ccc(-n3nc(C(F)(F)F)cc3C(=O)NC3CCN(c4ccccc4CN4CCCC4)CC3)cc12,1.3
2,CCN(C)Cc1ccccc1N1CCC(NC(=O)c2cc(C(F)(F)F)nn2-c2ccc3onc(N)c3c2)CC1,2.7
3,COc1ccc(-n2nc(C(N)=O)c3c2C(=O)N(C2CCN(c4ccccc4S(C)(=O)=O)CC2)CC3)cc1,1.5
4,Nc1noc2ccc(-n3nc(C(F)(F)F)cc3C(=O)NC3CCN(c4ccccc4CN4CCC[C@H]4O)CC3)cc12,0.2
5,CNCc1ccccc1N1CCC(NC(=O)c2cc(C(F)(F)F)nn2-c2ccc3onc(N)c3c2)CC1,0.1
6,CS(=O)(=O)c1ccccc1N1CCC(NC(=O)c2cc(C(F)(F)F)nn2-c2ccc3onc(N)c3c2)CC1,1.7

# System: not listed separately
# Assay: Clearance in dog at 0.5 mg/kg, iv
# Details: in vivo
row,Structure (SMILES),clearance [mL/min/kg]
1,Nc1noc2ccc(-n3nc(C(F)(F)F)cc3C(=O)NC3CCN(c4ccccc4CN4CCCC4)CC3)cc12,48.3
2,CCN(C)Cc1ccccc1N1CCC(NC(=O)c2cc(C(F)(F)F)nn2-c2ccc3onc(N)c3c2)CC1,71.7
3,COc1ccc(-n2nc(C(N)=O)c3c2C(=O)N(C2CCN(c4ccccc4S(C)(=O)=O)CC2)CC3)cc1,3.83
4,Nc1noc2ccc(-n3nc(C(F)(F)F)cc3C(=O)NC3CCN(c4ccccc4CN4CCC[C@H]4O)CC3)cc12,36.7
5,CNCc1ccccc1N1CCC(NC(=O)c2cc(C(F)(F)F)nn2-c2ccc3onc(N)c3c2)CC1,107
6,CS(=O)(=O)c1ccccc1N1CCC(NC(=O)c2cc(C(F)(F)F)nn2-c2ccc3onc(N)c3c2)CC1,18.3

# System: not listed separately
# Assay: Half life in dog at 0.2 mg/kg, po
# Details: in vivo
row,Structure (SMILES),half-life [h]
1,Nc1noc2ccc(-n3nc(C(F)(F)F)cc3C(=O)NC3CCN(c4ccccc4CN4CCCC4)CC3)cc12,5
2,CCN(C)Cc1ccccc1N1CCC(NC(=O)c2cc(C(F)(F)F)nn2-c2ccc3onc(N)c3c2)CC1,2.5
3,COc1ccc(-n2nc(C(N)=O)c3c2C(=O)N(C2CCN(c4ccccc4S(C)(=O)=O)CC2)CC3)cc1,0.8
4,CNCc1ccccc1N1CCC(NC(=O)c2cc(C(F)(F)F)nn2-c2ccc3onc(N)c3c2)CC1,0.3
5,CS(=O)(=O)c1ccccc1N1CCC(NC(=O)c2cc(C(F)(F)F)nn2-c2ccc3onc(N)c3c2)CC1,1.3

# Reference: ChEMBL document CHEMBL1139065, “Pyrazole-based factor Xa inhibitors containing N-arylpiperidinyl P4 residues” (Bioorg Med Chem Lett, 2007)
